Measurements from ChEMBL document CHEMBL3525934 (Drug Metab Dispos, 2013).

Columns and labels:
Assay type in all cases: ADME
Details in all cases: 0.5 h
[1] = target: T1, Cytochrome P450 2C8 (Homo sapiens, UniProt P10632); test: Drug metabolism in supersomes expressing human recombinant CYP2C8 assessed as enzyme-mediated cyanide adduct formation at 100 uM after 30 mins measured per nmol of P450 by HPLC analysis in presence of KCN
T1 sequence (P10632 whole entry): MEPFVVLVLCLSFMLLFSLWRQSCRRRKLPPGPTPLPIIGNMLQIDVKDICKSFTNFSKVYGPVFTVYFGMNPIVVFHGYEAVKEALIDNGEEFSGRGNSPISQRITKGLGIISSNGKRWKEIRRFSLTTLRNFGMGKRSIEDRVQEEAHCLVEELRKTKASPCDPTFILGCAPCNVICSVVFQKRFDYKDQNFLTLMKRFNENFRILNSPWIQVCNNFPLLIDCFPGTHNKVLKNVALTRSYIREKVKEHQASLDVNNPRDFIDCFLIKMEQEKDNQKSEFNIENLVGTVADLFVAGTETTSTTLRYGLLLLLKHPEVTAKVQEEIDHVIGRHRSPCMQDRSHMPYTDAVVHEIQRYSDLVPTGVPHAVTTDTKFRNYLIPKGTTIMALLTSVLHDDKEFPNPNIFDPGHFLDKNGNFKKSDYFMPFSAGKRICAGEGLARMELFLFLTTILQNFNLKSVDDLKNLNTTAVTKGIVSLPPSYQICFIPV

[2] = target: T2, Cytochrome P450 1A1 (Homo sapiens, UniProt P04798); test: Drug metabolism in supersomes expressing human recombinant CYP1A1 assessed as enzyme-mediated N-desmethylclozapine metabolite formation at 100 uM after 30 mins measured per nmol of P450 by HPLC analysis
T2 sequence (P04798 whole entry): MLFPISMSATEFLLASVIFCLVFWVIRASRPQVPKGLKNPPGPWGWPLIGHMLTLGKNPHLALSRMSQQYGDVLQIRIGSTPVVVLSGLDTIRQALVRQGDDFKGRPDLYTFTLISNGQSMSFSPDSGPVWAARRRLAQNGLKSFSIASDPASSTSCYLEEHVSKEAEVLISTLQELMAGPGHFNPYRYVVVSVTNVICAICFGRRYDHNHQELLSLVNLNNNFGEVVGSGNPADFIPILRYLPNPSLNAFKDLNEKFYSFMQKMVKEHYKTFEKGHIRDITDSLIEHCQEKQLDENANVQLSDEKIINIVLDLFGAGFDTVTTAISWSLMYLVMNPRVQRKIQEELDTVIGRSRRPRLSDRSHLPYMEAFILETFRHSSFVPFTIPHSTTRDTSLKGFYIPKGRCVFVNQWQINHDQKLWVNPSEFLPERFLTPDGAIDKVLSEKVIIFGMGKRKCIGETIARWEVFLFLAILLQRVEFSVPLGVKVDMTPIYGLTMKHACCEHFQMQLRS

[3] = target: T3, Cytochrome P450 1B1 (Homo sapiens, UniProt Q16678); test: Drug metabolism in supersomes expressing human recombinant CYP1B1 assessed as enzyme-mediated total GSH conjugate formation at 10 uM after 30 mins measured per nmol of P450 by HPLC analysis in presence of GSH and hGST P1-1
T3 sequence (Q16678 whole entry): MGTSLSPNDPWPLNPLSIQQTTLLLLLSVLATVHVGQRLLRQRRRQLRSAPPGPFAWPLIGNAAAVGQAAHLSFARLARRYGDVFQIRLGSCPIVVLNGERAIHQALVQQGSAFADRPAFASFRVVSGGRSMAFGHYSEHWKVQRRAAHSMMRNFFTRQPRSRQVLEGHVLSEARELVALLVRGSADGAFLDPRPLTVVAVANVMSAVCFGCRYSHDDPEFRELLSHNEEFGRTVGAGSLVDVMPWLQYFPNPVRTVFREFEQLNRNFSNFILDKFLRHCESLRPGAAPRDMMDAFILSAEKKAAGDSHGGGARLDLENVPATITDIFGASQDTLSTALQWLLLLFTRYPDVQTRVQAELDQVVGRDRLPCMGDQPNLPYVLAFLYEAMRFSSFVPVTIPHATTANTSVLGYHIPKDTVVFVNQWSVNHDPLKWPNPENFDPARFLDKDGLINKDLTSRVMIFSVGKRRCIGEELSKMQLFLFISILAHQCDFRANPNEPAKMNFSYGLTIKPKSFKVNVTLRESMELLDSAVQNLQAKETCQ

[4] = target: T3, Cytochrome P450 1B1; test: Drug metabolism in supersomes expressing human recombinant CYP1B1 assessed as enzyme-mediated clozapine-N-oxide metabolite formation at 10 uM after 30 mins measured per nmol of P450 by HPLC analysis
[5] = target: T1, Cytochrome P450 2C8; test: Drug metabolism in supersomes expressing human recombinant CYP2C8 assessed as enzyme-mediated N-desmethylclozapine metabolite formation at 10 uM after 30 mins measured per nmol of P450 by HPLC analysis
[6] = target: T4, Cytochrome P450 1A2 (Homo sapiens, UniProt P05177); test: Drug metabolism in supersomes expressing human recombinant CYP1A2 assessed as enzyme-mediated cyanide adduct formation at 100 uM after 30 mins measured per nmol of P450 by HPLC analysis in presence of KCN
T4 sequence (P05177 whole entry): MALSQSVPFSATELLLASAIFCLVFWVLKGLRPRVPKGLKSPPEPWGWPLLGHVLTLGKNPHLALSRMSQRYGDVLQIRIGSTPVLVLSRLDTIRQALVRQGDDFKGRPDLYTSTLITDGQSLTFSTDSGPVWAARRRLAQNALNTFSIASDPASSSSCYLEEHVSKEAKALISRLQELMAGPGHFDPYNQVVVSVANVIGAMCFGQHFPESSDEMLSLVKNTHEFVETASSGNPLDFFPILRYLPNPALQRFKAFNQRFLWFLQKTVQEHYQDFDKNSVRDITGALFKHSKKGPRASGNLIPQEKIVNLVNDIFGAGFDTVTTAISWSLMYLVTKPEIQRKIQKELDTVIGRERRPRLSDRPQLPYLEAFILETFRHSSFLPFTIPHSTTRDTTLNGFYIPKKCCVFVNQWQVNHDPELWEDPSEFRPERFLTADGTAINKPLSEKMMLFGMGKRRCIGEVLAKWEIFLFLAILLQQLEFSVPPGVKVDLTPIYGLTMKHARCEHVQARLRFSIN

In the case of `CN1CCN(C2=Nc3cc(Cl)ccc3Nc3ccccc32)CC1` [CLOZAPINE], the Drug metabolism [1] is reported as 0.058 nmol/min, the Drug metabolism [2] is reported as 0.56 nmol/min and the Drug metabolism [3] is reported as 0.15 nmol/min. For the same compound, the Drug metabolism [4] was 0.84 nmol/min, the Drug metabolism [5] was 0.92 nmol/min and the Drug metabolism [6] was 0.2 nmol/min.
